Results reported in patent US7119206B2, “Derivative of dihydro-dibenzo (a) anthracenes and their use as selective estrogen receptor modulators” (Eli Lilly and Company, priority 2002, dated 2006).

Tests used:
[1] = tested on: Ishikawa human endometrial tumor cells; experiment: Ishikawa cell assay (PNPP readout), antagonist mode; format: cell-based; details: with 1 nM E2
Excerpt: (§1) Ishikawa human endometrial tumor cells are maintained in MEM (minimum essential medium, with Earle's salts and L-Glutamine, Gibco BRL, Gaithersburg, Md.), supplemented with 10% fetal bovine serum (FBS) (V/V), (Gibco BRL). One day prior to assay, growth media is changed to assay medium, DMEM/F-12 (3:1) (Dulbecco's Modified Eagle Medium: Nutrient Mixture F-12, 3:1 Mixture, phenol red-free, Gibco BRL) supplemented with 5% dextran coated charcoal stripped fetal bovine serum (DCC-FBS) (Hyclone, Logen, Utah), L-Glutamine (2 mM), MEM sodium pyruvate (1 mM), HEPES (N-[2-hydroxyethyl]piperazine-N′-[2-ethanesulfonic acid] 2 mM) all from Gibco BRL). After an overnight incubation, ishikawa cells are rinsed with Dulbecco's Phosphate Buffered Saline (1×) (D-PBS) without Ca^+2 and Mg^+2 (Gibco BRL), and trypsinized by a 3 minute incubation with 0.25% Trypsin/EDTA, phenol red-free (Gibco BRL). Cells are resuspended in assay medium and adjusted to 250,000 cells/ml. Approximately 25,000 cells in a 100 ul media are added to flat-bottom 96 wells microculture plates (Costar 3596) and incubated at 37° C. in a 5% CO2 humidified incubator for 24 hours. The next day, serial dilutions of compounds are prepared in assay medium (at 6 times the final concentration in the assay). The assay is run in dual mode, agonist and antagonist modes. For the agonist mode, plates receive 25 μl/well of assay medium followed by 25 μl/well of diluted compounds (at 6× the final concentrations). For the antagonist mode, plates receive 25 μl/well of 6 nM E2 (β-Estradiol, Sigma, St. Louis, Mo.) followed by 25 μl/well of diluted compounds (at 6× the final concentrations). After an additional 48-hour incubation at 37° C. in a 5% CO2 humidified incubator, media is aspirated from wells and 100 μl fresh assay medium is added to each microculture. Serial dilutions of compounds are prepared and added to the cells as described above. After an additional 72 hour incubation at 37° C. in a 5% CO2 humidified incubator, the assay is quenched by removing media and rinsing plates twice in Dulbecco's Phosphate Buffered Saline (1×) (D-PBS) (Gibco BRL). The plates are dried for 5 min and frozen at −70° C. for at least 1 hour. The plates are then removed from the freezer and allowed to thaw at room temperature. To each well, 100 μl of 1-Step™ PNPP (Pierce Chemical Company, Rockford, Ill.) is added. After a 20-minute incubation, plates are read on a spectophotometer at 405 nm. The data is fitted to a linear interpolation to derive EC50 (for agonist mode) or IC50 (for antagonist mode) values. For the agonist mode, a % efficacy for each compound is calculated versus the response to Tamoxifen. For the antagonist mode, a % efficacy for each compound is calculated versus E2 (1 nM) alone.

[2] = tested on: MCF-7 breast adenocarcinoma cells; experiment: MCF-7 proliferation assay (14C-thymidine), antagonist mode; format: cell-based; details: Homo sapiens, MCF7, antagonist mode, with 10 pM E2
Description: MCF-7 breast adenocarcinoma cells (ATCC HTB 22) are maintained in MEM (minimal essential medium, phenol red-free, Gibco BRL) supplemented with 10% fetal bovine serum (FBS) (V/V), L-glutamine (2 mM), sodium pyruvate (1 mM), HEPES ((N-[2-hydroxyethyl]piperazine-N′-[2-ethanesulfonic acid]10 mM}, non-essential amino acids(0.1 mM)and Penicillin Streptomycin(1×). Seven days prior to assay, MCF-7 cells are switched to assay media which is the same as maintenance medium except supplemented with 10% dextran-coated charcoal-stripped fetal bovine serum (DCC-FBS) assay medium in place of 10% FBS. MCF-7 cells are removed from flasks using 10× Trypsin EDTA (phenol red free, Gibco BRL) and diluted to 1× in (Ca++/Mg++ free HBSS (phenol red-free). Cells are adjusted to 80,000 cells/ml in assay medium. Approximately 8,000 cells (100 μl) are added to each well in 96 well Cytostar T scintillation plates (Amersham) and incubated at 37° C. in a 5% CO2 humidified incubator for 24 hours to allow cell adherence and equilibration after transfer. Serial dilutions of drugs are prepared in assay medium at 4× the final desired concentration). A 50 μl aliquot of drug dilutions (at 4× the final assay concentration) is transferred to duplicate wells followed by 50 μl assay medium for the agonist mode or 50 μl of 40 pM of E2 for the antagonist mode to a final volume of 200 μl. For each of the agonist plates, a basal level (media) and a maximum stimulated level (with 1 μM E2) is determined. For each of the antagonist plates, a basal level (media) and a E2 (10 pM) alone control is determined. After an additional 48 hours at 37° C. in a 5% CO2 humidified incubator, 20 μl of assay medium containing 0.01 μCi of ^14C-thymidine (52 mCi/mmol, […], Amersham) is added to each well. The plates are incubated overnight in the same incubator and then counted on the Wallac Microbeta counter. […] For the agonist mode, an EC50 and percent of maximum E2 stimulation and concentration of maximum stimulation is calculated.

ERAlpha receptor = biological target: T1, ERAlpha receptor (Homo sapiens, UniProt P03372); experiment: ER alpha competition binding assay (3H-Estradiol); details: 3H-Estradiol competition; IC50 converted to Ki using Cheng-Prusoff; read-out: ER binding Ki (ERα)
T1 construct: purchased PanVera
T1 sequence (P03372 1-595): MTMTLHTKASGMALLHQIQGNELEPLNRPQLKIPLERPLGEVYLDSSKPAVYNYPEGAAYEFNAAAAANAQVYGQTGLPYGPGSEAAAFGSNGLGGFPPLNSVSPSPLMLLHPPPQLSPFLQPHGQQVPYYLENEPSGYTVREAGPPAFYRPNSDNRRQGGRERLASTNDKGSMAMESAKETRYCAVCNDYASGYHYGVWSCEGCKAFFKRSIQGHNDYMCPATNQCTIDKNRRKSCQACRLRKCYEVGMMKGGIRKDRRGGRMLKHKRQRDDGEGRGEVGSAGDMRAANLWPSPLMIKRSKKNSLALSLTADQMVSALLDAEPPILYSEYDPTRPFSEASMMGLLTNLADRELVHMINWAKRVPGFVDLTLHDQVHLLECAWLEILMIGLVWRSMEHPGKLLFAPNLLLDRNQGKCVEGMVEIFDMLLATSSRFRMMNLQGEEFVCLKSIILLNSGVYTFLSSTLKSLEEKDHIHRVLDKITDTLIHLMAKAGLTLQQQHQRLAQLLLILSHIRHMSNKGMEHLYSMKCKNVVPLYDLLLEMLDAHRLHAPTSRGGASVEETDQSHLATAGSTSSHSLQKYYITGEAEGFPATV
Description: (§2) Competition binding assay is run in a buffer containing 50 mM Hepes, pH 7.5, 1.5 mM EDTA, 150 mM NaCl, 10% glycerol, 1 mg/ml ovalbumin and 5 mM DTT, using 0.025 μCi per well ^3H-Estradiol(NEN #NET517 at 118 Ci/mmol, 1 mCi/ml), 10 ng/well ERAlpha or ERbeta receptor (PanVera). Competing compounds are added at 10 different concentrations. Non-specific binding is determined in the presence of 1 μM of 17-B Estradiol. The binding reaction (140 μl) is incubated for 4 hours at room temperature, then 70 μl of cold DCC buffer is added to each reaction (DCC buffer contains per 50 ml of assay buffer, 0.75 g of charcoal (Sigma) and 0.25 g of dextran (Pharmacia)). Plates are mixed 8 minutes on an orbital shaker at 4° C. Plates are then centrifuged at 3,000 rpm at 4° C. for 10 minutes. An aliquot of 120 μl of the mix is transferred to another 96-well, white flat bottom plate (Costar) and 175 μl of Wallac Optiphase “Hisafe 3” scintillation fluid is added to each well. Plates are sealed and shaken vigorously on an orbital shaker. After an incubation of 2.5 hrs, read plates in a Wallac Microbeta counter. […] The Kd for ^3H-Estradiol is determined by saturation binding to ER alpha and ER beta receptors. The IC50 values for compounds are converted to Ki using Cheng-Prusoff equation and the Kd determined by saturation binding assay.

ERbeta receptor = biological target: T2, ERbeta receptor (Homo sapiens, UniProt Q92731); experiment: ER beta competition binding assay (3H-Estradiol); details: 3H-Estradiol competition; IC50 converted to Ki using Cheng-Prusoff; read-out: ER binding Ki (ERβ)
T2 construct: purchased PanVera
Description: as §2

[3] = tested on: Ishikawa human endometrial tumor cells; experiment: Ishikawa cell assay (PNPP readout), agonist mode; format: cell-based; details: Homo sapiens, Ishikawa; for Emax: % efficacy versus the response to Tamoxifen, read-out: Ishikawa Agonist % Eff
Excerpt: as §1

T2 sequence (Q92731 whole entry): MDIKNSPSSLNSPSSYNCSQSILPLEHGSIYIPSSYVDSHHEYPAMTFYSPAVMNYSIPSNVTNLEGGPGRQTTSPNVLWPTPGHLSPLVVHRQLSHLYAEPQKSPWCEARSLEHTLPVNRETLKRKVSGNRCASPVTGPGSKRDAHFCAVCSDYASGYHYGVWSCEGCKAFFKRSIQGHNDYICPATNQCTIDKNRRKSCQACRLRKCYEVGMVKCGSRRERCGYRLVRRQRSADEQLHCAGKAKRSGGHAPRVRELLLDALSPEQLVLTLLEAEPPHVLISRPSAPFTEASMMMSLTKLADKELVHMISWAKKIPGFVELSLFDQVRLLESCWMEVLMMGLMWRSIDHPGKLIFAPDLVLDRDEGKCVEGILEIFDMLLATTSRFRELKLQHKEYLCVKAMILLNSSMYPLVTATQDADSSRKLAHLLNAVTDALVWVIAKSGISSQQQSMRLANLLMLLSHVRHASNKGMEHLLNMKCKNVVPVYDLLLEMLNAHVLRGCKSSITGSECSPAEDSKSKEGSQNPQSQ

| IC50 [1] [nM] | IC50 [2] [nM] | Ki (ERAlpha receptor) [nM] | Ki (ERbeta receptor) [nM] | EC50 [3] [nM] | Compound | Emax [3] [%] |
| --- | --- | --- | --- | --- | --- | --- |
| 130 | 7 | 1 | 3 | 3 | Oc1ccc2c(c1)C(c1ccc(OCCN3CCCCC3)cc1)c1c(ccc3cc(O)ccc13)C2 (stereo not drawn) [Example 8, 12-[4-(2-Piperidin-1-yl-ethoxy)-phenyl]-7,12-dihydro-benzo[a]anthracene-3,10-diol] | 75 |
| 582 | 68 | 8 | 40 | 28 | Oc1ccc2c3c(ccc2c1)Cc1cccc(O)c1C3c1ccc(OCCN2CCCCC2)cc1 (stereo not drawn) [Example 12, 12-[4-(2-Piperidin-1-yl-ethoxy)-phenyl]-7,12-dihydro-benzo[a]anthracene-3,11-diol] | 77 |
| 50 | 3 | 1 | 5 | 1 | Oc1ccc2c3c(ccc2c1)Cc1c(O)cccc1C3c1ccc(OCCN2CCCCC2)cc1 (stereo not drawn) [Example 13, 12-[4-(2-Piperidin-1-yl-ethoxy)-phenyl]-7,12-dihydro-benzo[a]anthracene-3,8-diol] | 121 |
